According to article PMC4979516, “Quinazoline-based tricyclic compounds that regulate programmed cell death, induce neuronal differentiation, and are curative in animal models for excitotoxicity and hereditary brain disease” (Cell Death Discovery, 2015):
“Also recorded” adds a separate entry of the source.

Legend:
[1] = biological target: T1, 18 kDa translocator protein (TSPO) (Rattus norvegicus, UniProt P16257); experiment: TSPO binding, displacement of [3H]PK 11195 in rat kidney membranes
T1 construct: 400 μl of homogenized rat kidney membranes (5 mg of homogenate/ml); from tissue; host or cells: rat kidney (homogenized membranes)
Experimental: After incubation for 60 min at 4 °C, samples were filtered under vacuum over Whatman GF/C filters and washed three times with 5 ml of 50 mM Tris-HCl buffer, pH 7.4. The filters were incubated in CytoScint (MP Biomedicals) and radioactivity was measured after 12 h with a 1600 CA Tri-Carb liquid scintillation analyzer (Packard). Inhibitory constant (Ki) values were calculated by the equation Ki=IC50/(1+C/Kd), where C=[^3H]

R6-2 mice = experiment: R6-2 transgenic mouse model for Huntington disease (lifespan, behavior); format: in vivo; conditions: for Week of age until which 50% of treated R6-2 mice were still alive: 7.5 mg/kg s.c. daily 5 days per week, vehicle: 11th week (2-Cl-MGV-1 study), 10th week (2-Cl-MGV-2 study); for Uncontrollable tremor activity of R6-2 mice: 7.5 mg/kg s.c., data not shown; for Effect on behavior and lifespan of R6-2 mice: pilot studies, s.c. daily 5 days per week, MGV-1 15 mg/kg, PK 11195 15 mg/kg, MGV-2 15 and 7.5 mg/kg
From the text: Huntington disease in humans is a hereditary disease including neurodegeneration leading to degradation in motor performance, continual involuntary movements, tremors, cardiovascular and respiratory impairments, and finally leading to death of the patients having the disease.[88] For this study, R6-2 mice (~120 CAG repeats B6CBA-Tg(HDexon1)62 Gpb/3J) mice were used as a transgenic mouse model for Huntington disease. For this purpose, mice obtained from the Jackson Laboratory were bred. In particular, males hemizygous for Tg(HDexon1)62 Gpb, and females from the wild-type background strain B6CBAF1/J, were bred according to the protocol of Jackson Laboratory.
For tests of drug efficacy, male offspring hemizygous for Tg(HDexon1)62 Gpb were used to determine drug effect on lifespan, motor activity, and general well-being of the animals. Drug treatment for this study consisted of daily (5 continuous days per week) subcutaneous injections in the neck area of mice with 20 μl of: the drug vehicle DMSO (vehicle control), 2-Cl-MGV-1(7.5 mg/kg) and 2-Cl-MGV-2 (7.5 mg/kg). […] Quantities were used according to previous studies regarding TSPO ligands[48] and adapted depending on the findings in the course of the pilot studies. The treatments were given until the animals died a natural death. Behavioral experiments included distance covered in an open field apparatus,[89] freezing,[89] and balance on a rotor-rod.[90] Spontaneous tremor activity was evaluated using a Hamilton–Kinder sensor in a soundproof ventilated apparatus (Kinder Scientific). The assays for locomotor activity, tremors, and body weight were performed on a weekly basis, together with evaluation of the well-being of the mice. Finally, the day of death was noted. As lifespan data were most pronounced, these are presented in the present description of the results. No adverse effects of any of the drug treatments were noted, neither for specific tests, nor for general observations. Importantly, DMSO had no effect by itself as compared with naive mice or saline-injected mice with various behavioral assays.[20]

U118MG cells [2] = experiment: LDH cytotoxicity assay, glutamate-induced cell death of U118MG cells; conditions: for Lethal effects of the compound (LDH): compound 10-100 μM by itself or with 35 mM glutamate; for Protection against glutamate-induced cell death (LDH): 35 mM glutamate, compound 10-100 μM, 24 h pretreatment
Experimental: (1) For U118MG cells, glutamate at a concentration of 35 mM was applied with or without MGV-1. As discussed, glutamate levels in normal healthy brain tissue can average 15 mM, and these levels can be doubled in diseased brain tissue, whereas in cell organelles glutamate levels can be as high as 250 mM (as discussed). […] In more detail, U118MG cells were seeded, 2×10^5 cells per well of 6-well plates and 6×10^3 cells per well of 96-well plates. Twenty-four hours after seeding, U118MG cells were pretreated with MGV-1 (or one of the other compounds) at various concentrations from 0.1 nM–100 μM. Twenty-four hours after the pretreatment, the cells were exposed to 35 mM of glutamate. […] The negative control was vehicle, that is, ethanol with a final concentration of 1%. […] The positive control was exposure to 35 mM of glutamate alone (with 200 μM of glycine).
Wells of 96-well plates were with 6000 cells per well and treated according the protocol presented above. We used the Cytotoxicity Detection Kit (LDH) (Roche Pharmacuticals) according to the manufacturer’s instructions. When cell plasma membranes are damaged, the cytoplasmic enzyme LDH is released into the medium. The amount of formazan formed is proportional to the amount of LDH released.[77] The resulting color intensity is proportional to the number of damaged cells. Absorbance at 492 nm with reference at 690 nm was measured with the Spectrophotometer Zenyth 200 (Anthos) and the results were calculated and normalized according to the formula presented by the manufacturer.

[3] = system: NeuN expression in PC12 cells strain #3; experiment: Western blot of NeuN in PC12 strain #3; format: cell-based, rat; conditions: PC12 strain #3, versus vehicle control
Experimental: The relative protein levels of TSPO and other proteins related to neurodifferentiation (including β-actin, NeuN, tubulin-3β), were assayed by immunoblotting with the aid electrophoresis through 12% SDS-polyacrylamide gel, according to previously described methods.[71] A priori, general protein levels were measured by the method of Bradford using BSA as a standard.[75] After electrophoresis, the gels were subjected to electrophoretic transfer to nitrocellulose membranes. Then, the membranes were blocked for 1 h in 5% non-fat milk in 62.5 mM sodium phosphate buffer, pH 7.4, containing 100 mM NaCl, and 0.1% (v/v) Tween-20 (PBS-T) and then incubated for 2 h or overnight at 4 °C with the appropriate antibodies: anti-tubulin-3β 1 : 10 000, anti-NeuN 1 : 1000, anti β-actin 1 : 15 000, and anti-TSPO 1 : 10 000.[73] After washing with TBS-T, the membranes were incubated with IgG secondary antibody linked to horseradish peroxidase (anti-rabbit IgG 1 : 20 000, anti-mouse IgG 1 : 10 000, as appropriate, from Jackson Immunologicals, West Grove, PA, USA) in TBS-T at room temperature. Binding of antibodies to the membrane was detected with the EZ-ECL-detection reagent (Biological Industries), using the ImageQuant LAS 4010 apparatus and Totallab Quant quantitative image analysis of Totallab (Newcastle upon Tyne, England).

[4] = system: PC12 cells strain #1 (polygonal cells); experiment: Neuronal differentiation (neurite sprouting) of PC12 strain #1; format: cell-based, rat; conditions: strain #1, only polygonal cells
U118MG cells [5] = experiment: Mitochondrial ROS / cardiolipin oxidation (NAO) assay in U118MG cells exposed to glutamate; format: cell-based, human; conditions: 25 μM compound, 35 mM glutamate
From the text: Cardiolipin is present in the inner mitochondrial membrane, at the contact sites with the outer mitochondrial membrane. By application of NAO, we assayed cardiolipin peroxidation as an indication of mitochondrial ROS generation, as described previously.[71] NAO binds with high affinity to non-oxidized cardiolipin in a 2 : 1 ratio, but with less affinity to oxidized cardiolipin, the latter which is reflected by lower levels of green NAO fluorescence.[78] For our study, cells were collected and centrifuged at 1200×g for 5 min, 4 °C. Cell pellets were re-suspended in 0.5 ml of 0.1 μM NAO and incubated for 30 min at 37 °C in the dark. Then, the cells were washed once with 0.5 ml PBS and transferred into 5 ml FALCON FACS tubes and analyzed with the aid of a BD FACSCalibur flow cytometer using CellQuest software (BD Biosciences, Franklin Lakes, NJ, USA).

U118MG cells [6] = experiment: Mitochondrial membrane potential (JC-1) assay in U118MG cells exposed to glutamate; format: cell-based, human; conditions: 25 μM compound, 35 mM glutamate
From the text: JC-1 was used to assay changes in Δψm, as described previously.[71],[79] Owing to charges distributed along JC-1 molecules, they pass unimpaired (charged) mitochondrial membranes and enter the mitochondrial matrix. There the J-molecules form J-aggregates, which emit at 590 nm (orange–red fluorescence). […] The monomers emit at 527 nm (green fluorescence). A decrease in the red–green fluorescence intensity ratio is an indication for mitochondrial depolarization. As a positive control, the proton ionophore carbonyl cyanide m-chlorophenylhydrazone was used as described previously.[71] Cells were collected and prepared for suspension in 10 μg/ml of JC-1 solution in PBS. After incubation at 37 °C for 30 min in the dark, the cells were washed with 0.5 ml of PBS, and the cell suspensions were analyzed with the BD FACSCalibur flow cytometer.

PC12 cells = experiment: Neuronal differentiation of PC12 cells, strain not specified; format: cell-based, rat; conditions: agent by itself; MGV-1 50 μM
Experimental: For our newly developed differentiation method by MGV-1 in combination with glutamate, PC12 cells were plated onto poly-L-lysine coated culture plates and Petri dishes at a relatively low density (5.2×10^3 cells/cm^2 for six-well plates and 3.6×10^3 cells/cm^2 for Petri dishes), in DMEM medium containing 8% heat-inactivated FBS and 8% horse serum. […] Exposure to vehicle alone (culture medium with 1% of ethanol) was used as the control.
The major and determining indication of neural differentiation of PC12 cells is neurite development.[23],[80] […] The number of differentiated cells was determined by visual examination of the captured fields. In particular, a line was drafted at half height of the image and the cell bodies crossed by the line were further analyzed regarding differentiation. […] Cells with at least one identifiable neurite with a length at least equal to the cell body diameter were scored, and their number expressed as a percentage of the total number of cells crossed by said line. In addition, for each of these cells, the length of the longest neurite was determined (using AxioVision Image software, Zeiss). […]

T1 sequence (P16257 whole entry): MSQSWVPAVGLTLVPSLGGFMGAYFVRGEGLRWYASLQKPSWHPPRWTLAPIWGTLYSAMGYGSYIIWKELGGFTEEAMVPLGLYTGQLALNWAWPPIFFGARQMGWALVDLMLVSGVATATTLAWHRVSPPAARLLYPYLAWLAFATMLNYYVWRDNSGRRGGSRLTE

Molecule	Ki [1] [nM]	Lethal effects of the compound (LDH) (U118MG cells [2])	Protection against glutamate-induced cell death (LDH) (U118MG cells [2])	also measured
CN(C)C(=O)Oc1nc(-c2ccccc2Cl)nc2ccccc12 [2-Cl-MGV-1, 2-(2-chlorophenyl)quinazolin-4-yl dimethylcarbamate]	825 ± 315	very little lethality by itself at any concentration; also recorded: shows the least lethal effects when applied just by itself	–	Week of age until which 50% of treated R6-2 mice were still alive (R6-2 mice): 12 week; Uncontrollable tremor activity of R6-2 mice (R6-2 mice): reduction of uncontrollable tremor activity
CCN(C)C(=O)Oc1nc(-c2ccccc2Cl)nc2ccccc12 [2-Cl-MGV-2, 2-(2-chlorophenyl)quinazolin-4-yl ethyl(methyl)carbamate]	80 ± 11	undesired lethal effect at high concentrations when given just by itself	protects excellently; also recorded: very effective in protecting against glutamate-induced cell death	Week of age until which 50% of treated R6-2 mice were still alive (R6-2 mice): 12 week; Uncontrollable tremor activity of R6-2 mice (R6-2 mice): reduction of uncontrollable tremor activity
CCN(CC)C(=O)Oc1nc(-c2ccccc2Cl)nc2ccccc12 [2-Cl-MGV-3, 2-(2-chlorophenyl)quinazolin-4-yl diethylcarbamate]	2.6 ± 1	undesired lethal effects at 50 and 100 μM both with and without glutamate exposure	–	–
N[C@@H](CCC(=O)O)C(=O)O [Glu, Glutamate, reference compound]	–	–	–	Increase of NeuN expression (western blot) [3]: do not enhance NeuN expression significantly; Differentiation of PC12 strain #1 by the agent by itself [4]: do not have this effect
CCN(C)C(=O)Oc1nc(-c2ccccc2)nc2ccccc12 [MGV-2, 2-phenylquinazolin-4-yl ethyl(methyl)carbamate]	80 ± 11	undesired lethal effects at high concentrations (in particular 100 μM)	protect against lethal effects of glutamate; also recorded: already quite effective at 10 μM	Effect on behavior and lifespan of R6-2 mice (R6-2 mice): effects reminiscent of those of 2-Cl-MGV-1 and 2-Cl-MGV-2, but less consistent; Prevention of cardiolipin oxidation / mitochondrial ROS generation induced by glutamate (NAO) (U118MG cells [5]): prevent cardiolipin oxidation; Prevention of collapse of the ΔΨm induced by glutamate (JC-1) (U118MG cells [6]): prevention of the collapse of the ΔΨm
CCN(CC)C(=O)Oc1nc(-c2ccccc2)nc2ccccc12 [MGV-3, 2-phenylquinazolin-4-yl diethylcarbamate]	2.6 ± 1	undesired lethal effects at high concentrations (in particular 100 μM)	protect against lethal effects of glutamate; also recorded: already quite effective at 10 μM	–
CCC(C)N(C)C(=O)c1cc2ccccc2c(-c2ccccc2Cl)n1 (centres unmarked) [PK 11195, N-butan-2-yl-1-(2-chlorophenyl)-N-methylisoquinoline-3-carboxamide, reference compound]	–	–	–	Effect on behavior and lifespan of R6-2 mice (R6-2 mice): did not show such effects; Neuronal differentiation of PC12 cells (neurite outgrowth) (PC12 cells): can differentiate PC12 cells
NGF: mouse NGF, 2.5S from Promega; classical agent to induce neuronal differentiation of PC12 cells (protein, UniProt P01139 122-241, looked up) Beta-nerve growth factor: SSTHPVFHMGEFSVCDSVSVWVGDKTTATDIKGKEVTVLAEVNINNSVFRQYFFETKCRASNPVESGCRGIDSKHWNSYCTTTHTFVKALTTDEKQAAWRFIRIDTACVCVLSRKATRRG	–	–	–	Increase of NeuN expression (western blot) [3]: do not enhance NeuN expression significantly; Differentiation of PC12 strain #1 by the agent by itself [4]: do not have this effect
